A word on the IC50: it is the concentration that gives 50% inhibition. Low readings indicate greater potency in that assay, high ones weaker potency in that assay.

Structures are written as SMILES.

The assay addresses T1, stearoyl-CoA desaturase (SCD) (Rattus norvegicus, UniProt P07308).
T1 construct: The microsomes were quickly thawed and added to assay buffer so that a concentration of 0.4 mg/ml was achieved; from tissue
T1 sequence (P07308 1-358): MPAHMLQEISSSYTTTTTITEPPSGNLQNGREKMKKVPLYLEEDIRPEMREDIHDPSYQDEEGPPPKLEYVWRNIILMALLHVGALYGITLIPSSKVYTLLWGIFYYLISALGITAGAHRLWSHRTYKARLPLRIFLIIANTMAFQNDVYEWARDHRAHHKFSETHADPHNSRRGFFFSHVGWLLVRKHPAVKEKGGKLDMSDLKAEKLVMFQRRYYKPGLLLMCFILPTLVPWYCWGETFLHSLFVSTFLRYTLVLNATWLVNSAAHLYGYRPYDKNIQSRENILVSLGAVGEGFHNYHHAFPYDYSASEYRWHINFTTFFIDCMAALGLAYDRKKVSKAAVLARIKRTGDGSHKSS
Put plainly: SCD assay with rat liver microsomes ([3H]stearoyl CoA, adapted from Talamo and Bloch). The class given is biochemical. The conditions noted are these: Table 2 (Example 21, procedures of Example 20); rat liver microsomes, [3H]stearoyl CoA substrate. The procedure, abridged: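 Liver microsomes came from diet-induced male Sprague Dawley rats and were used at 0.2 mg/ml final. Assay buffer was Tris pH 7.2 with NADH, ATP, CoA, MgCl2 and 0.1% BSA. Compounds were preincubated 30 min, then reacted 45 min at room temperature with [3H]stearoyl-CoA; after TCA stop and Bio-Bead cleanup, supernatant radioactivity was counted by scintillation.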
(In general: Liver microsomes are vesicles of endoplasmic reticulum, rich in cytochrome P450 enzymes.)
Turning to `Cc1ccc(Cn2cnc3ccc(NC(=O)OCc4ccccc4)cc3c2=O)cc1C` [compound 20, benzyl 3-(3,4-dimethylbenzyl)-4-oxo-3,4-dihydroquinazolin-6-ylcarbamate], it took 230 nM to reach half-maximal inhibition (IC50).
`CC(=O)OCC(=O)Nc1ccc2ncn(Cc3ccc(C)c(C)c3)c(=O)c2c1` [compound 21, 2-(3-(3,4-dimethylbenzyl)-4-oxo-3,4-dihydroquinazolin-6-ylamino)-2-oxoethyl acetate] registered an IC50 of 470 nM.
On to `Cc1ccc(Cn2cnc3ccc(NC(=O)CO)cc3c2=O)cc1C` [compound 22, N-(3-(3,4-dimethylbenzyl)-4-oxo-3,4-dihydroquinazolin-6-yl)-2-hydroxyacetamide], for which half-maximal inhibition (IC50) was put at 280 nM.
With `CC(c1ccc(Cl)c(Cl)c1)n1cnc2ccc(NC(=O)CO)cc2c1=O` (stereo not drawn) [compound 23, N-(3-(1-(3,4-dichlorophenyl)ethyl)-4-oxo-3,4-dihydroquinazolin-6-yl)-2-hydroxyacetamide], the IC50 came to 210 nM.
Molecule `CC(=O)OCC(=O)Nc1ccc2ncn(CCCc3ccccc3)c(=O)c2c1` [compound 24, 2-oxo-2-(4-oxo-3-(3-phenylpropyl)-3,4-dihydroquinazolin-6-ylamino)ethyl acetate] returned a concentration for half-maximal inhibition (IC50) of 1300 nM.
In the case of `CCC(c1ccc(Cl)c(Cl)c1)n1cnc2ccc(NC(=O)COC(C)=O)cc2c1=O` (stereo not drawn) [compound 25, 2-(3-(1-(3,4-dichlorophenyl)propyl)-4-oxo-3,4-dihydroquinazolin-6-ylamino)-2-oxoethyl acetate], the midpoint of inhibition, the IC50, lay at 500 nM.
For the molecule `CCC(c1ccc(Cl)c(Cl)c1)n1cnc2ccc(NC(=O)CO)cc2c1=O` (stereo not drawn) [compound 26, N-(3-(1-(3,4-dichlorophenyl)propyl)-4-oxo-3,4-dihydroquinazolin-6-yl)-2-hydroxyacetamide], the midpoint of inhibition, the IC50, lay at 3300 nM.
Take `O=C(CO)Nc1ccc2ncn(CCCc3ccccc3)c(=O)c2c1` [compound 27, 2-hydroxy-N-(4-oxo-3-(3-phenylpropyl)-3,4-dihydroquinazolin-6-yl)acetamide]: the IC50 turned out to be 4500 nM.
With `CC(=O)OCC(=O)Nc1ccc2ncn(Cc3ccccc3C(F)(F)F)c(=O)c2c1` [compound 28, 2-oxo-2-(4-oxo-3-(2-(trifluoromethyl)benzyl)-3,4-dihydroquinazolin-6-ylamino)ethyl acetate] the figure was 1500 nM; with `O=C(CO)Nc1ccc2ncn(Cc3cccc(-c4ccccc4)c3)c(=O)c2c1` [compound 29, N-(3-(biphenyl-3-ylmethyl)-4-oxo-3,4-dihydroquinazolin-6-yl)-2-hydroxyacetamide], 3900 nM; with `CCC(c1ccc(Cl)c(Cl)c1)n1cnc2ccc(NC(=O)OCc3ccccc3)cc2c1=O` (stereo not drawn) [compound 30, benzyl 3-(1-(3,4-dichlorophenyl)propyl)-4-oxo-3,4-dihydroquinazolin-6-ylcarbamate], 1400 nM.
In the case of `O=C(CO)Nc1ccc2ncn(Cc3ccc4ccccc4c3)c(=O)c2c1` [compound 31, 2-hydroxy-N-(3-(naphthalen-2-ylmethyl)-4-oxo-3,4-dihydroquinazolin-6-yl)acetamide], the IC50 was determined as 340 nM.
The molecule `O=C(Nc1ccc2ncn(Cc3ccc4ccccc4c3)c(=O)c2c1)OCc1ccccc1` [compound 32, benzyl 3-(naphthalen-2-ylmethyl)-4-oxo-3,4-dihydroquinazolin-6-ylcarbamate] displayed an IC50 of 720 nM.
Consider `O=C(CO)Nc1ccc2c(=O)n(Cc3ccc4ccccc4c3)cnc2c1` [compound 33, 2-hydroxy-N-(3-(naphthalen-2-ylmethyl)-4-oxo-3,4-dihydroquinazolin-7-yl)acetamide], for which the IC50 was 2800 nM.
As to `C[C@H](c1ccc(Cl)c(C(F)(F)F)c1)n1cnc2ccc(NC(=O)CO)cc2c1=O` [compound 34, (R)—N-(3-(1-(4-chloro-3-(trifluoromethyl)phenyl)ethyl)-4-oxo-3,4-dihydroquinazolin-6-yl)-2-hydroxyacetamide], the IC50 is 480 nM.

For the origin of these results see patent US20090105283A1, “3-HYDROQUINAZOLIN-4-ONE DERIVATIVES FOR USE AS STEAROYL CoA DESATURASE INHIBITORS” (priority 2007, published 2009).
